Columns and labels:
Met-1 cells = assay: In vitro chemosensitivity study (CellTiter-Glo, ATP as surrogate for viability); type: cell-based, murine; conditions: 72 hours incubation; ATP levels (CellTiter-Glo)
Procedure: 4,000 Met-1 cells were plated in quadruplicates in 96-well plates containing growth media. The next day, vehicle (PBS) or chemotherapy (doxorubicin: 0.33 nM-2.2 ∝M; paclitaxel: 14 μM-160 μM) was added to the plate and incubated for 72 hours. ATP levels were quantified as a surrogate measure for viability (CellTiter-Glo, Promega) using a luminometer (Perkin-Elmer).
We next tested responsiveness of Met-1 mammary carcinoma to combination doxorubicin (A), cyclophosphamide (C), and paclitaxel (T) chemotherapy, AC-T, a standard of care chemotherapy regimen for breast cancer patients with ER-negative disease. We first tested the sensitivity of Met-1 cells to doxorubicin and paclitaxel in vitro and performed an initial in vivo experiment to identify a therapeutically relevant, well-tolerated combinatorial dose.

[1] = tested on: MT-2 WT and KO cell lines; assay: In vitro sensitivity of MT-2 WT and KO cell lines to chemotherapy; type: cell-based, murine
Procedure: 4,000 […] cells were plated in quadruplicates in 96-well plates containing growth media. The next day, vehicle (PBS) or chemotherapy (doxorubicin: 0.33 nM-2.2 ∝M; paclitaxel: 14 μM-160 μM) was added to the plate and incubated for 72 hours. ATP levels were quantified as a surrogate measure for viability (CellTiter-Glo, Promega) using a luminometer (Perkin-Elmer).

Structure (SMILES)	viability of Met-1 cells in vitro (Met-1 cells)	(enhanced) sensitivity of MT-2 KO versus WT in vitro [1]
CC(=O)O[C@H]1C(=O)[C@@]2(C)[C@H]([C@H](OC(=O)c3ccccc3)[C@]3(O)C[C@H](OC(=O)[C@H](O)[C@@H](NC(=O)c4ccccc4)c4ccccc4)C(C)=C1C3(C)C)[C@]1(OC(C)=O)CO[C@@H]1C[C@@H]2O [paclitaxel]	significantly decreased viability	not apparent
COc1cccc2c1C(=O)c1c(O)c3c(c(O)c1C2=O)C[C@@](O)(C(=O)CO)C[C@@H]3O[C@H]1C[C@H](N)[C@H](O)[C@H](C)O1 [doxorubicin, Doxorubicin]	significantly decreased viability	not apparent

Reference: patent US20210172934A1, “SINGLE CELL CLONING APPROACHES FOR BIOLOGICAL STUDIES” (priority 2018, published 2021)
